Measurements from US11040028B2, “Penicinotam derivative, preparation method and use thereof” (OCEAN UNIVERSITY OF CHINA, priority 2017, dated 2021).

Legend:
Assay type in all cases: cell-based
[1] = system: BHK-21 cells; test: Anti-fibrosis activity test: inhibition of BHK-21 cell proliferation (CCK-8); settings: Mesocricetus auratus, BHK-21, 48 h, CCK-8, 48 hours after administration
How it was run: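 Cells plated 2×10^4 cells/mL; 24 h attach; compound dilutions, triplicate, 48 h, 37° C/5% CO2; CCK-8 2 h; A450; IR = (1−Ai/Ao)×100%; IC50 by curve fit.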

[2] = system: mouse macrophages (RAW264.7); test: Lipopolysaccharide-induced NO secretion in macrophages (Griess); settings: Mus musculus, RAW264.7, 24 h, RAW264.7, LPS 1 μg/ml, a/b isomers given as first/second symbol, read-out: IC50 (μM), inhibition of lipopolysaccharide-induced NO secretion in macrophages
How it was run: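 LPS 1 μg/ml, 24 h, RAW264.7 (DMEM/10% FBS); cpds at varied concs. Supernatant NO by Griess, A548; % inhibition vs blank medium.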

[3] = system: human dermal fibroblasts CCC-ESF-1; test: Anti-fibrosis activity test: inhibition of proliferation of human dermal fibroblasts CCC-ESF-1 (CCK-8); settings: Fibroblast; human dermal fibroblasts CCC-ESF-1, CCK-8, 48 hours
How it was run: (§1)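 After one day of adherence at 37° C in 5% CO2, cells (seeded at 2×10^4 cells/mL) received the compounds for two days in triplicate. Inhibition of proliferation was quantified with CCK-8 at 450 nm, with IC50 calculated from IR = (1−Ai/Ao)×100%.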

[4] = system: cardiac fibroblast RAT-iCell-C002; test: Anti-fibrosis activity test: inhibition of proliferation of cardiac fibroblast RAT-iCell-C002 (CCK-8); settings: Cardiac fibroblast, 48 h, cardiac fibroblast RAT-iCell-C002, CCK-8, 48 hours
How it was run: as §1

[5] = system: human embryonic lung fibroblast IMR-90; test: Anti-fibrosis activity test: inhibition of proliferation of human embryonic lung fibroblast IMR-90 (CCK-8); settings: human embryonic lung fibroblast IMR-90, CCK-8, 48 hours
How it was run: as §1

[6] = system: human lung fibroblasts HFL1; test: Anti-fibrosis activity test: inhibition of proliferation of human lung fibroblasts HFL1 (CCK-8); settings: Homo sapiens, HFL1, 48 h, human lung fibroblasts HFL1, CCK-8, 48 hours
How it was run: as §1

[7] = system: human fibrosarcoma cells HT-1080; test: Anti-fibrosis activity test: inhibition of proliferation of human fibrosarcoma cells HT-1080 (CCK-8); settings: Homo sapiens, HT-1080, 48 h, human fibrosarcoma cells HT-1080, CCK-8, 48 hours
How it was run: as §1

[8] = system: human hepatic stellate cells LX-2; test: Anti-fibrosis activity test: inhibition of proliferation of human hepatic stellate cells LX-2 (CCK-8); settings: Homo sapiens, 48 h, human hepatic stellate cells LX-2, CCK-8, 48 hours
How it was run: as §1

IC50 [2]	IC50 [7]	SMILES	IC50 [1]	IC50 [3]	IC50 [4]	IC50 [5]	IC50 [6]	IC50 [8]
1 to 10 µM	5 to 20 mM	N#Cc1cccc2c1c(=O)c1c(n2Cc2cccc(F)c2)-c2cccn2C1=O [Compound 463a, 4-(3-Fluorobenzyl)-9,10-dioxo-4,10-dihydro-9H-pyrrolizino[1,2-b]quinoline-8-carbonitrile]	0.05 to 5 mM	0.05 to 5 mM	0.05 to 5 mM	0.05 to 5 mM	0.05 to 5 mM	0.05 to 5 mM
1 to 10 µM	0.05 to 5 mM	N#Cc1cccc2nc3c(c(OCc4cccc(F)c4)c12)C(=O)n1cccc1-3 [Compound 463b, 9-((3-fluorobenzyl)oxy)-10-oxo-10H-pyrrolizino[1,2-b]quinoline-8-carbonitrile]	0.05 to 5 mM	0.05 to 5 mM	0.05 to 5 mM	0.05 to 5 mM	0.05 to 5 mM	0.05 to 5 mM
0.1 to 1 µM	0.05 to 5 mM	O=C1c2c(n(Cc3ccc(Cl)cc3)c3cccc(C(F)(F)F)c3c2=O)-c2cccn21 [Compound 465a, 4-(4-Chlorobenzyl)-8-(trifluoromethyl)-9H-pyrrolizino[1,2-b]quinoline-9,10(4H)-dione]	0.05 to 5 mM	0.05 to 5 mM	0.05 to 5 mM	0.05 to 5 mM	0.05 to 5 mM	0.05 to 5 mM
10 to 50 µM	0.05 to 5 mM	O=C1c2c(nc3cccc(C(F)(F)F)c3c2OCc2ccc(Cl)cc2)-c2cccn21 [Compound 465b, 9-((4-chlorobenzyl)oxy)-8-(trifluoromethyl)-10H-pyrrolizino[1,2-b]quinolin-10-one]	0.05 to 5 mM	0.05 to 5 mM	0.05 to 5 mM	0.05 to 5 mM	0.05 to 5 mM	0.05 to 5 mM
1 to 10 µM	0.05 to 5 mM	O=C1c2c(n(Cc3cccc(Cl)c3)c3cccc(C(F)(F)F)c3c2=O)-c2cccn21 [Compound 466a, 4-(3-Chlorobenzyl)-8-(trifluoromethyl)-9H-pyrrolizino[1,2-b]quinoline-9,10(4H)-dione]	0.05 to 5 mM	0.05 to 5 mM	0.05 to 5 mM	0.05 to 5 mM	0.05 to 5 mM	< 0.05 mM
1 to 10 µM	0.05 to 5 mM	O=C1c2c(nc3cccc(C(F)(F)F)c3c2OCc2cccc(Cl)c2)-c2cccn21 [Compound 466b, 9-((3-chlorobenzyl)oxy)-8-(trifluoromethyl)-10H-pyrrolizino[1,2-b]quinolin-10-one]	0.05 to 5 mM	0.05 to 5 mM	0.05 to 5 mM	0.05 to 5 mM	0.05 to 5 mM	0.05 to 5 mM
1 to 10 µM	0.05 to 5 mM	O=C1c2c([nH]c3cccc(F)c3c2=O)-c2cccn21 [Compound 467a, 8-Fluoro-9H-pyrrolizino[1,2-b]quinoline-9,10(4H)-dione]	< 0.05 mM	0.05 to 5 mM	0.05 to 5 mM	0.05 to 5 mM	0.05 to 5 mM	0.05 to 5 mM
1 to 10 µM	0.05 to 5 mM	O=C1c2c(nc3cccc(F)c3c2O)-c2cccn21 [Compound 467b, 8-fluoro-9-hydroxy-10H-pyrrolizino[1,2-b]quinolin-10-one]	0.05 to 5 mM	0.05 to 5 mM	0.05 to 5 mM	0.05 to 5 mM	0.05 to 5 mM	0.05 to 5 mM
0.1 to 1 µM	5 to 20 mM	N#Cc1cccc2c1c(=O)c1c(n2Cc2ccccc2F)-c2cccn2C1=O [Compound 469a, 4-(2-Fluorobenzyl)-9,10-dioxo-4,10-dihydro-9H-pyrrolizino[1,2-b]quinoline-8-carbonitrile]	< 0.05 mM	0.05 to 5 mM	0.05 to 5 mM	0.05 to 5 mM	0.05 to 5 mM	0.05 to 5 mM

The next lines start with the compound.

SMILES	IC50 [2]	IC50 [7]	IC50 [1]	IC50 [3]	IC50 [4]	IC50 [5]	IC50 [6]	IC50 [8]
O=C1c2c(n(Cc3cccc(Cl)c3)c3c(C(F)(F)F)cccc3c2=O)-c2cccn21 [Compound 455a, 4-(3-Chlorobenzyl)-5-(trifluoromethyl)-9H-pyrrolizino[1,2-b]quinoline-9,10(4H)-dione]	1 to 10 µM	0.05 to 5 mM	0.05 to 5 mM	0.05 to 5 mM	0.05 to 5 mM	5 to 20 mM	5 to 20 mM	0.05 to 5 mM
O=C1c2c(nc3c(C(F)(F)F)cccc3c2OCc2cccc(Cl)c2)-c2cccn21 [Compound 455b, 9-((3-chlorobenzyl)oxy)-5-(trifluoromethyl)-10H-pyrrolizino[1,2-b]quinolin-10-one]	1 to 10 µM	0.05 to 5 mM	0.05 to 5 mM	0.05 to 5 mM	0.05 to 5 mM	0.05 to 5 mM	5 to 20 mM	0.05 to 5 mM
N#Cc1cccc2c(=O)c3c(n(Cc4ccccc4F)c12)-c1cccn1C3=O [Compound 456a, 4-(2-Fluorobenzyl)-9,10-dioxo-4,10-dihydro-9H-pyrrolizino[1,2-b]quinoline-5-carbonitrile]	1 to 10 µM	0.05 to 5 mM	0.05 to 5 mM	0.05 to 5 mM	0.05 to 5 mM	0.05 to 5 mM	0.05 to 5 mM	< 0.05 mM
N#Cc1cccc2c(OCc3ccccc3F)c3c(nc12)-c1cccn1C3=O [Compound 456b, 9-((2-fluorobenzyl)oxy)-10-oxo-10H-pyrrolizino[1,2-b]quinoline-5-carbonitrile]	1 to 10 µM	0.05 to 5 mM	0.05 to 5 mM	0.05 to 5 mM	0.05 to 5 mM	0.05 to 5 mM	0.05 to 5 mM	0.05 to 5 mM
O=C1c2c(n(Cc3ccccc3Cl)c3c(C(F)(F)F)cccc3c2=O)-c2cccn21 [Compound 457a, 4-(2-Chlorobenzyl)-5-(trifluoromethyl)-9H-pyrrolizino[1,2-b]quinoline-9,10(4H)-dione]	1 to 10 µM	0.05 to 5 mM	0.05 to 5 mM	0.05 to 5 mM	0.05 to 5 mM	0.05 to 5 mM	0.05 to 5 mM	< 0.05 mM
O=C1c2c(nc3c(C(F)(F)F)cccc3c2OCc2ccccc2Cl)-c2cccn21 [Compound 457b, 9-((2-chlorobenzyl)oxy)-5-(trifluoromethyl)-10H-pyrrolizino[1,2-b]quinolin-10-one]	1 to 10 µM	0.05 to 5 mM	0.05 to 5 mM	0.05 to 5 mM	0.05 to 5 mM	0.05 to 5 mM	0.05 to 5 mM	0.05 to 5 mM
O=C1c2c(n(Cc3cccc(Cl)c3)c3c(Cl)cccc3c2=O)-c2cccn21 [Compound 459a, 5-Chloro-4-(3-chlorobenzyl)-9H-pyrrolizino[1,2-b]quinoline-9,10(4H)-dione]	1 to 10 µM	5 to 20 mM	0.05 to 5 mM	0.05 to 5 mM	0.05 to 5 mM	0.05 to 5 mM	0.05 to 5 mM	0.05 to 5 mM
O=C1c2c(nc3c(Cl)cccc3c2OCc2cccc(Cl)c2)-c2cccn21 [Compound 459b, 5-chloro-9-((3-chlorobenzyl)oxy)-10H-pyrrolizino[1,2-b]quinolin-10-one]	1 to 10 µM	5 to 20 mM	0.05 to 5 mM	0.05 to 5 mM	0.05 to 5 mM	0.05 to 5 mM	0.05 to 5 mM	0.05 to 5 mM
O=C1c2c(n(Cc3ccccc3F)c3c(Cl)cccc3c2=O)-c2cccn21 [Compound 460a, 5-Chloro-4-(2-fluorobenzyl)-9H-pyrrolizino[1,2-b]quinoline-9,10(4H)-dione]	0.1 to 1 µM	0.05 to 5 mM	< 0.05 mM	0.05 to 5 mM	0.05 to 5 mM	0.05 to 5 mM	< 0.05 mM	0.05 to 5 mM
O=C1c2c(nc3c(Cl)cccc3c2OCc2ccccc2F)-c2cccn21 [Compound 460b, 5-chloro-9-((2-fluorobenzyl)oxy)-10H-pyrrolizino[1,2-b]quinolin-10-one]	10 to 50 µM	0.05 to 5 mM	0.05 to 5 mM	0.05 to 5 mM	0.05 to 5 mM	0.05 to 5 mM	0.05 to 5 mM	0.05 to 5 mM
O=C1c2c(n(Cc3ccccc3Cl)c3c(Cl)cccc3c2=O)-c2cccn21 [Compound 461a, 5-Chloro-4-(2-chlorobenzyl)-9H-pyrrolizino[1,2-b]quinoline-9,10(4H)-dione]	1 to 10 µM	0.05 to 5 mM	< 0.05 mM	0.05 to 5 mM	0.05 to 5 mM	0.05 to 5 mM	0.05 to 5 mM	< 0.05 mM
O=C1c2c(nc3c(Cl)cccc3c2OCc2ccccc2Cl)-c2cccn21 [Compound 461b, 5-chloro-9-((2-chlorobenzyl)oxy)-10H-pyrrolizino[1,2-b]quinolin-10-one]	1 to 10 µM	0.05 to 5 mM	0.05 to 5 mM	0.05 to 5 mM	0.05 to 5 mM	0.05 to 5 mM	0.05 to 5 mM	0.05 to 5 mM
